Columns and labels:
[1] = tested on: pentosidine; test: Pentosidine production inhibiting effect with BSA and arabinose; type: biochemical; conditions: BSA and arabinose instead of plasma
Procedure, shortened: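 Heparinized hemodialysis-patient plasma (replaced here by BSA plus arabinose) incubated with compound at 0.8, 2.0, 5.0 mM final, 37 °C, one week. Protein TCA-precipitated, hydrolysed in 6N HCl at 110 °C for 16 h; free pentosidine quantified by reversed-phase HPLC with fluorescence (ex/em 335/385 nm) against synthetic standard.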

[2] = tested on: Thy-1 nephritis model rat; test: Renal protective effect on Thy-1 nephritis model rat; type: in vivo; conditions: 50 mg/kg twice daily by sonde, 5 days
Method: 1.2 mg/kg of OX-7, anti Thy-1 antibody, was administered to wistar rat (male, body weight 150 g, 6 weeks aged) in caudal vein to prepare typical glomerulonephritis model with mesangial nephritis. After the administration of anti Thy-1 antibody, test compound (TM-2002, 50 mg/kg body weight, twice a daily) was suspended in 0.5% carboxymethylcellulose, was coercively administered 5 days continuously using sonde, on sixth day sampled, kidney was obtained, and analysed pathologically (count the number of glomerular cells). In particular, cells were stained by PAS according to conventional method, the stained image was captured by 3CCD camera (Olympus), and then analyzed using softwares, Image Graver PCI (FUJI shashin film) and Mac Aspect (Mitani kabushiki kaisha). Also, biochemical analysis of blood and urine was carried out (contract clinical analysis organization: SRL).

[3] = tested on: SHR/NDmcr-cp rats; test: In vivo endoplasmic reticula stress alleviation, anti-ORP150 immunostaining of kidney; design: species or system rat; conditions: 100 mg/1 kg body weight by diet, 33 weeks aged
Method: Endoplasmic reticula stress alleviation effect by TM-2002 was examined using SHR/NDmcr-cp (Disease Model Cooperative Research Association) rats, which have been known their high blood pressure, hyperglycemia, hyperlipemia, obesity and hyperinsulinemia and renal function disorder while aging, and immunostained utilizing anti-ORP150 antibody. The stained section samples which were used for staining were prepared as following manner; SHR/NDmcr-cp rats which were administered the desired amount of test compound TM-2002 (dose: 100 mg/1 kg body weight) by diet (30 g daily), the rats which were administered no drug and SHR (hypertension) rats and Wistar Kyoto rats (control); kidney tissues of each rat were obtained after the end of drug administration period (33 weeks aged); all of tissues were fixed by Carnoy and embedded in paraffin. The staining of each samples was carried out by Catalyzed Sifnal Amplification(CSA) System (DAKO) according to their protocol. […] The samples were observed by microscopic visualization with optical microscope (Olympus) and analyzed the result. […]

[4] = tested on: ischemia-reperfusion renal failure model rat; test: Renal protective effect on ischemia-reperfusion renal failure model rat; type: in vivo; conditions: 50 mg/kg twice daily by sonde, 2 days
Method: This condition model is typical acute renal failure model. To prepare the model, operated on wistar rats (male, body weight 150 g, 6 weeks aged) to remove right kidney, and on the following day, renal artery of remaining left kidney was apply a ligature with clip under general anesthesia. […] After preparing the ischemia-reperfusion model, test compound (TM-2002, 50 mg/kg body weight, twice a daily) was suspended in 0.5% carboxymethylcellulose. The suspension was coercively administered 2 days continuously using sonde, on third day kidney was obtained, and analysed pathologically (renal tubular stromal disorder score). In particular, the kidney was stained by PAS according to conventional method and the renal tubular stromal disorder was estimated for the presence or absence of renal tubular necrosis, renal tubular hypertrophy, renal tubular atrophia, renal tubular basal lamina thickening and cast in the sustained image of kidney. As well as biochemical analysis of blood was carried out (contract clinical analysis organization: SRL).

## Cc1ncc2c(c1O)C(c1c(C)nn(-c3ccccc3)c1O)OC2 (centres unmarked) [compound 68, 1-(5-hydroxy-3-methyl-1-phenyl-1H-pyrazol-4-yl)-6-methyl-1,3-dihydro-furo[3,4-c]pyridin-7-ol]
[1]
  Pentosidine production rate in 5 mM of medicament (%): 2.82%
[2]; sampled on sixth day
  BUN value: improved
  urinary protein: improved
[2]; p<0.0001
  number of glomerular cells: significantly suppressed
[3]
  ORP150 positive staining site / ER stress in kidney: decrease of positive staining site and suppressing ER stress
[4]; kidney on third day
  BUN value: improved
  urinary protein: improved
[4]; p<0.0001
  number of glomerular cells: significantly suppressed

— patent US7645882B2, “Inhibitor of protein modification products formation” (priority 2003, dated 2010)
